{"source": "ChEMBL document CHEMBL1268853", "about": "“Characterization of Acetylcholinesterase Inhibitory Constituents from Annona glabra Assisted by HPLC Microfractionation” (J Nat Prod, 2010)", "note": "Where a name gives a salt, the structure may show the parent alone."}
{"biological_target": "Acetylcholinesterase (Electrophorus electricus, UniProt O42275)", "sequence (O42275 whole entry)": "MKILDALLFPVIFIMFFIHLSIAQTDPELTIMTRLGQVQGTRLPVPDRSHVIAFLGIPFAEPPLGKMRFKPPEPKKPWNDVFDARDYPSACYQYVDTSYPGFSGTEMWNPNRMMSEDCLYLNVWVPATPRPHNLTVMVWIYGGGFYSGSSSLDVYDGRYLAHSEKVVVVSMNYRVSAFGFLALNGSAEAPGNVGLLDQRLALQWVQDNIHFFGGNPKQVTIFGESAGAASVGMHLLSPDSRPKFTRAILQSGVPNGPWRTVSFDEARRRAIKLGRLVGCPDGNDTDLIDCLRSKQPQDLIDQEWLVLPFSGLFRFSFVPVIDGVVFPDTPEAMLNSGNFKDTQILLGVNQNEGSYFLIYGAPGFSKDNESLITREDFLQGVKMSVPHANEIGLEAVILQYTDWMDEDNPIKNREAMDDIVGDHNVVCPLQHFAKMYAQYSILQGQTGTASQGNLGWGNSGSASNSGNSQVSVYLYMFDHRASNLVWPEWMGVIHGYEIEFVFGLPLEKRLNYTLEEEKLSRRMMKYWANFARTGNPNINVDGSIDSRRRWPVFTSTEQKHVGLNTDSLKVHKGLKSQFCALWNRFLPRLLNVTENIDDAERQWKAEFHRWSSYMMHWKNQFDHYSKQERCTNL", "assay": "Inhibition of electric eel AChE by Ellman's method", "units": {"IC50": "µM"}}
{"smiles": "COc1cc2c(cc1O)C[N@+]1(C)CCc3cc(OC)c(OC)cc3[C@@H]1C2", "IC50": 8.4}
{"smiles": "COc1cc2c(cc1O)-c1cc3cc(OC)c(OC)cc3c[n+]1CC2", "note": "[PSEUDOCOLUMBAMINE TRIFLUOROACETATE]", "IC50": 5}
{"smiles": "COc1ccc(C[C@H]2c3cc(O)c(OC)cc3CCN2C)cc1O", "IC50": 72.2}
{"smiles": "COc1cc2c(cc1OC)-c1cc3ccc(O)c(OC)c3c[n+]1CC2", "note": "[DEHYDROCORYDALMINE TRIFLUOROACETATE]", "IC50": 96.5}
{"smiles": "COc1c(O)cc2c3c1-c1ccccc1C[C@H]3NCC2", "IC50": 123}
{"smiles": "COc1cc2c(cc1O)C[C@H]1NCCc3cc4c(c-2c31)OCO4", "IC50": "> 117"}
{"smiles": "COc1cc2c(cc1O)C=[N+]1CCc3cc(OC)c(OC)cc3[C@@H]1C2", "IC50": 154}
{"smiles": "COc1cc2c(cc1OC)-c1cc3cc(OC)c(OC)cc3c[n+]1CC2", "note": "[PSEUDOPALMATINE TRIFLUOROACETATE]", "IC50": 1.8}
{"smiles": "COc1cccc2c1C(=O)c1c(C)cc(=O)[nH]c1C2=O", "IC50": 23.4}
{"smiles": "O=C1c2ccccc2-c2c3c(cc4ccnc1c24)OCO3", "note": "[LIRIODENINE]", "IC50": "> 150"}
{"smiles": "COc1cc2c3c(c1O)-c1c(ccc(OC)c1OC)C[C@@H]3[N+](C)(C)CC2", "IC50": "> 140"}
{"smiles": "COc1cc2ccnc3c2c(c1OC)-c1cc2c(cc1C3=O)OCO2", "IC50": "> 150"}
{"smiles": "COc1cc2c(cc1O)C=[N+](C)CC2", "IC50": 16}
{"smiles": "O[C@@H]1c2ccccc2-c2c3c(cc4c2[C@H]1NCC4)OCO3", "IC50": "> 126"}
{"smiles": "COc1cc2ccnc3c2c(c1OC)-c1ccccc1C3=O", "note": "[LYSICAMINE]", "IC50": 16.1}
{"smiles": "COc1c(O)c2c3c(c1OC)-c1ccccc1C[C@H]3NCC2", "IC50": 110}
{"smiles": "COc1cc2c(cc1OC)[C@@H]1Cc3ccc(O)c(OC)c3C=[N+]1CC2", "IC50": 30.8}
{"smiles": "COc1cc2c[n+]3c(cc2cc1O)-c1cc(OC)c(OC)cc1CC3", "note": "[DEHYDROCORYTENCHINE TRIFLUOROACETATE]", "IC50": 97.6}
{"smiles": "COc1c(O)c2c3c(c1OC)-c1cc4c(cc1C[C@@H]3NCC2)OCO4", "IC50": 76.9}
